Data on twelve compounds can be found in ChEMBL document CHEMBL3232765, “Anti-mycobacterial activity of 1,3-diaryltriazenes” (Eur J Med Chem, 2014).

The subject of this experiment is Mycobacterium tuberculosis. In words: Antimycobacterial activity against Mycobacterium tuberculosis H37Rv after 6 days by luciferase reporter gene assay. In kind it is functional, organism-based. As to conditions: 144 h.
The IC50 is the concentration needed to halve the response being measured. The low end stands for greater potency in that assay, the high end for weaker potency in that assay. By IC90 is commonly meant the concentration at which the effect reaches the 90% level. High values mean a need for much substance, low ones an effect from little substance. The term IC99 denotes the concentration needed for an effect of 99%. Lower therefore signals greater potency. `NNC(=O)c1ccncc1` [ISONIAZID] registered an IC50 of 0.04 µM, an IC90 of 0.11 µM and an IC99 of 0.13 µM.

`COc1cc(/C=C/C(=O)N(/N=N/c2ccc(Cl)c(C(F)(F)F)c2)c2ccc(Cl)c(C(F)(F)F)c2)cc(OC)c1` showed an IC50 of 71.3 µM, an IC90 above 100 µM and an IC99 above 100 µM.

Compound `COc1ccc(/C=C/C(=O)N(/N=N/c2ccc(Cl)cc2C(F)(F)F)c2ccc(Cl)cc2C(F)(F)F)c(OC)c1` registered an IC50 of 83.1 µM, an IC90 above 100 µM and an IC99 above 100 µM.

`COc1ccc(/C=C/C(=O)N(/N=N/c2cc(C(F)(F)F)ccc2Cl)c2cc(C(F)(F)F)ccc2Cl)c(OC)c1` yielded a half-maximal inhibitory concentration (IC50) of 72.3 µM, an IC90 above 100 µM and an IC99 above 100 µM.

The compound `COc1ccc(/C=C/C(=O)N(/N=N/c2ccc(Cl)c(C(F)(F)F)c2)c2ccc(Cl)c(C(F)(F)F)c2)c(OC)c1` returned an IC50 of 52 µM, an IC90 of 80.8 µM and a concentration for an effect of 99% (IC99) of 84.4 µM.

Compound `Clc1ccc(/N=N/Nc2ccc(Cl)cc2Cl)c(Cl)c1` yielded an IC50 above 100 µM, an IC90 above 100 µM and an IC99 above 100 µM.

As for `FC(F)(F)c1cc(Cl)ccc1/N=N/Nc1ccc(Cl)cc1C(F)(F)F`, the half-maximal inhibitory concentration (IC50) is 93 µM, the IC90 is above 100 µM and the IC99 was above 100 µM.

Regarding `N#Cc1c(F)cccc1/N=N/Nc1cccc(F)c1C#N`, the IC50 came to 62.3 µM, the IC90 was above 100 µM and the IC99 is above 100 µM.

With `N#Cc1cc(/N=N/Nc2ccc(F)c(C#N)c2)ccc1F`, the IC50 was above 100 µM, the IC90 was above 100 µM and the IC99 was above 100 µM.

Compound `Fc1ccc(/N=N/Nc2ccc(F)cc2C(F)(F)F)c(C(F)(F)F)c1` registered an IC50 of 85.5 µM, an IC90 above 100 µM and an IC99 above 100 µM.

On to `FC(F)(F)c1ccc(Cl)c(N=NNc2cc(C(F)(F)F)ccc2Cl)c1`, for which inhibition was half-maximal at 97.5 µM (IC50), the IC90 is above 100 µM and the IC99 is above 100 µM.

The compound `Fc1ccc(C(F)(F)F)cc1/N=N/Nc1cc(C(F)(F)F)ccc1F` yielded a half-inhibitory concentration (IC50) of 58.9 µM, a 90% effect concentration (IC90) above 100 µM and an IC99 above 100 µM.
